{
  "source": "paper PMC9240354",
  "about": "“Pharmacokinetics, Pharmacodynamics and Antiviral Efficacy of the MEK Inhibitor Zapnometinib in Animal Models and in Humans” (Frontiers in Pharmacology, 2022)",
  "key": {"MEK": {"tested_on": "MEK", "experiment": "MEK inhibition in PBMCs of healthy human volunteers (pERK/ERK, Wes)", "assay_type": "in vivo", "protocol": "PBMCs were isolated from the same blood samples (30 µl mouse blood, 50 µl hamster blood, or 1 ml dog blood) used for pharmacokinetic analysis. After plasma separation as described in the section above (Blood sampling and preparation of plasma samples), the remaining red blood cells were lysed by adding 1 volume of red blood cell (RBC) lysis buffer (Thermo Fisher Scientific, Waltham, MA, United States) (300 µl for mice, 500 µl for hamster, and 10 ml for dogs). The samples were incubated for 15 min at RT and centrifuged at 500 x g for 5 min (RT). The supernatant was removed completely, and the pellet was washed twice with PBS. The PBMC cell pellets were store at −80°C until further analysis. PBMCs of 8 ml human blood were isolated using CPT^TM tubes. After a 20-min centrifugation at 1,650 x g at room temperature, the plasma was collected for PK analysis as described in the section above (Blood sampling and preparation of plasma samples). The PBMC layer was collected in a 15 ml tube (Greiner Bio-One, Frickenhausen, Germany), and washed twice with PBS by centrifugation at 300 x g for 10 min at RT. The PBMC pellets were store at −80°C until further PD assessment.\nThe pharmacodynamic assessment was performed using the Wes™ (Simple Western™) system which uses capillary electrophoresis to separate, identify and quantify proteins of interest. A chemiluminescence signal for each identified protein is detected and the area under the peak is calculated, which is then used for quantification. The 0.1x Sample Buffer, 400 mM dithiothreitol (DTT) solution, 5x Fluorescence Master Mix, and the Biotinylated Ladder (ProteinSimple®, Abingdon, Oxford, United Kingdom) were prepared according to manufacturer’s instructions. For all species, PBMCs were lysed in 1x radioimmunoprecipitation assay (RIPA) buffer (containing 0.24% (w/v) tris base (Sigma-Aldrich, St. Louis, MO, United States), 0.88% (w/v) NaCl (Carl Roth GmbH, Karlsruhe, Germany), 0.2% (v/v) 500 mM EDTA (Sigma-Aldrich), 1% (v/v) Triton X-100 (Sigma-Aldrich), 0.5% (w/v) sodium deoxycholate (Sigma-Aldrich), 0.1% (w/v) sodium dodecyl sulfate (SDS) (Carl Roth), 10% (v/v) glycerol (Carl Roth), 0.05% phenylmethyl sulfonyl fluoride (PMSF) (Carl Roth), 0.01% Benzonase® Nuclease (Sigma-Aldrich), protease inhibitor cocktail (Roche, Basel, Switzerland), and phosphatase inhibitor cocktail (Roche) in H2O), further diluted with 0.1x Sample Buffer (ProteinSimple®, Abingdon, Oxford, United Kingdom) to adjust the protein concentration to 1 μg/μl. Then the 5x Fluorescence Master Mix in DTT (ProteinSimple®) was added, and the samples were denatured for 5 min at 95°C, loaded onto the assay plate and analyzed using specific antibodies. […] The anti-rabbit secondary antibody (Cat# DM-001) was also purchased from ProteinSimple® and was ready to use. Data were analyzed with Compass software for simple western (ProteinSimple®). Using the ratio of pERK to ERK of each sample compared to control (pre-dose), the level of ERK phosphorylation was calculated and then converted into the percentage level of MEK inhibition."}, "tolerability in mice": {"experiment": "tolerability in mice", "assay_type": "in vivo", "conditions": "influenza virus infected mice, 25 mg/kg BID p.o.", "protocol": "Zapnometinib [2-(2-Chloro-4-Iodophenylamino)-N-3,4-Difluoro benzoic acid] (M = 409.56 g/mol) was synthesized at ChemCon GmbH (Freiburg, Germany). The doses used in this study were chosen based on previously unpublished preclinical data. […] The toxicity of zapnometinib was evaluated in single- and repeat-dose p. o. studies of up to 1-month duration in rats and dogs. The genetic toxicity of zapnometinib was investigated in compliance with ICH S2; a standard battery of genotoxicity studies was performed, comprising an Ames test, an in vitro chromosome aberration test in human lymphocytes and an in vivo micronucleus assay in rats. Thus, the doses used in this manuscript were safe (Koch-Heier et al., manuscript in preparation). For treatment of mice, 10.5 mg zapnometinib were dissolved in 5% (v/v) dimethyl sulfoxide (DMSO) (Carl Roth GmbH, Karlsruhe, Germany) and further diluted with 15% (v/v) Cremophor EL (Merck KGaA, Darmstadt, Germany), and 80% (v/v) phosphate-buffered saline (PBS) (Gibco, Carlsbad, CA, California, United States). Each mouse received a dose of 25 mg/kg zapnometinib in an application volume of 200 µL of the formulation by oral gavage. The first treatment was given on day 0 (1 h prior to influenza virus infection) and the second treatment 7 h post infection. […]"}, "[1]": {"conditions": "single oral dose 100 mg, vs pre-dose"}, "[2]": {"conditions": "single oral dose 300 mg, vs pre-dose"}, "[3]": {"conditions": "single oral dose 600 mg, vs pre-dose"}, "[4]": {"conditions": "single oral dose 900 mg, vs pre-dose"}},
  "data": [
    {"smiles": "O=C(O)c1ccc(F)c(F)c1Nc1ccc(I)cc1Cl", "note": "[zapnometinib, 2-(2-Chloro-4-Iodophenylamino)-N-3,4-Difluoro benzoic acid]", "values": [
      {"measurement": "MEK inhibition at Cmax", "setting": "MEK; doses 100, 300 and 600 mg taken together", "result": "approximately 60%"},
      {"measurement": "MEK inhibition at 24 h", "setting": "MEK; [1]", "result": "35 ± 25", "unit": "%"},
      {"measurement": "MEK inhibition at Cmax", "setting": "MEK; [1]", "result": "63 ± 8", "unit": "%"},
      {"measurement": "MEK inhibition at 24 h", "setting": "MEK; [2]", "result": "41 ± 26", "unit": "%"},
      {"measurement": "MEK inhibition at Cmax", "setting": "MEK; [2]", "result": "61 ± 18", "unit": "%"},
      {"measurement": "MEK inhibition at 24 h", "setting": "MEK; [3]", "result": "37 ± 20", "unit": "%"},
      {"measurement": "MEK inhibition at Cmax", "setting": "MEK; [3]", "result": "64 ± 22", "unit": "%"},
      {"measurement": "MEK inhibition at 24 h", "setting": "MEK; [4]", "result": "26 ± 26", "unit": "%"},
      {"measurement": "MEK inhibition at Cmax", "setting": "MEK; [4]", "result": "79 ± 20", "unit": "%"},
      {"measurement": "tolerability", "setting": "tolerability in mice", "result": "well tolerated and not toxic"}
    ]}
  ]
}
